The numbers were not newly measured in patent US8137922B2, “Method for diagnosing the metabolic syndrome (MS)” (Hans Dieplinger, priority 2007, dated 2012), which cites them from elsewhere.

Where two headings read alike, the source gives them in different places.

In the data set the target is T1, afamin (Homo sapiens, UniProt P43652).
T1 sequence (P43652 22-599): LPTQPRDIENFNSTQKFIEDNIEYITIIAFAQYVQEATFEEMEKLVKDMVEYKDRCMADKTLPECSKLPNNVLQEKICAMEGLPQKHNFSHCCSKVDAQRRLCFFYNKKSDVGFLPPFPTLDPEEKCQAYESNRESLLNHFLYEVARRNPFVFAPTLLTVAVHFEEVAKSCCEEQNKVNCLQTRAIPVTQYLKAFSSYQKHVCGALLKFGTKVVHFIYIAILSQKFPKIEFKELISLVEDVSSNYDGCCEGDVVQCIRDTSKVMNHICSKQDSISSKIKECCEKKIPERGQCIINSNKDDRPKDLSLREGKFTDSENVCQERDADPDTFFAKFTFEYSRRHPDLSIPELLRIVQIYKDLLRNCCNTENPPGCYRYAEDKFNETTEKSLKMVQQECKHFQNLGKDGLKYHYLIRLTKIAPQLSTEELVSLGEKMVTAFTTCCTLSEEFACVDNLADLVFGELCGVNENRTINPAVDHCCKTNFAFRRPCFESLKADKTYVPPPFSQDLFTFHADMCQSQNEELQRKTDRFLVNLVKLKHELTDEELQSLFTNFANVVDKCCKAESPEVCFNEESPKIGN
The note with it: for maximum displacement of tocopherol: 2 μM afamin, 60 μM alpha-[14C]tocopherol, 100-fold excess of non-labeled competitor.

Consider `Cc1c(C)c2c(c(C)c1O)CC[C@@](C)(CCC[C@H](C)CCC[C@H](C)CCCC(C)C)O2` [alpha-tocopherol], for which the “maximum displacement of tocopherol” value is on record as 80%.

On to `Cc1c(O)cc2c(c1C)O[C@](C)(CCC[C@H](C)CCC[C@H](C)CCCC(C)C)CC2` [gamma-tocopherol], for which the “maximum displacement of tocopherol” value was 80%.

For vitamin E, where the note is “calculated, indicates that afamin could bind pairs of tocopherol”, the Hill coefficient was 1.8. Further, the Kd reads like this: (first of two binding sites, read-out: KD1, affinity of afamin for vitamin E) 6.3 µM; (second of two binding sites, read-out: KD2, affinity of afamin for vitamin E) 22 µM. Further, the “maximal binding (Bmax)” value (when both sites are activated) was 18 molecules of Vitamin E.

Broadly, the Hill coefficient is the slope factor of the fitted curve.
